From PMC6063448, “Antimicrobial activity of linear lipopeptides derived from BP100 towards plant pathogens” (PLoS ONE, 2018)

What was measured:
Assay type in all cases: cell-based
[1] = test system: Erwinia amylovora PMV6076; assay: MIC, growth inhibition in microtiter plates (TSB); details: Ea, 25°C, 48 h, OD 600 nm, lowest concentration with no growth, given as interval of tested concentrations, three replicates, experiment repeated twice
Description: (§1) The following plant pathogenic bacterial strains were used: Erwinia amylovora PMV6076 (Institut National de la Recherche Agronomique, Angers, France), Pseudomonas syringae pv. syringae EPS94 (Institut de Tecnologia Agroalimentària, Universitat de Girona, Spain), Xanthomonas axonopodis pv. vesicatoria 2133–2, Pseudomonas syringae pv. actinidiae Psa3700.1.1, Xanthomonas fragariae Xf349-9A (Instituto Valenciano de Investigaciones Agrarias, Valencia, Spain), and Xanthomonas arboricola pv. pruni CFBP5563 (Collection Française de Bactéries associées aux Plantes, Angers, France). All bacteria except for X. fragariae were stored in Luria Bertani (LB) broth supplemented with glycerol (20%) and maintained at -80°C. For X. fragariae, Medium B [46] was used instead of LB. E. amylovora, X. arboricola pv. pruni, P. syringae pv. syringae and P. syringae pv. actinidiae were scrapped from the agar media after growing for 24 h at 25°C, and X. axonopodis pv. vesicatoria and X. fragariae after growing for 48 h at 25°C. The cell material was suspended in sterile water to obtain a suspension of 10^8 CFU mL^-1.
(§2) Lyophilized peptides were solubilized in sterile Milli-Q water to a final concentration of 1 mM and filter sterilized through a 0.22-μm pore filter. […] For antibacterial activity 20 μL of each dilution were mixed in a microtiter plate well with 20 μL of the corresponding suspension of the bacterial indicator, 160 μL of Trypticase Soy Broth (TSB) (BioMèrieux, France) to a total volume of 200 μL. For antifungal activity 20 μL of each stock solution were mixed in a microtiter plate well with 80 μL of the corresponding suspension of the fungal pathogen and 100 μL of double concentrated Potato Dextrose Broth (PDB) to a total volume of 200 μL containing 0.003% w/v of chloramphenicol to prevent bacterial contamination.
(§3) Three replicates for each combination of strain, compound and concentration were used. Microbial growth was determined by optical density measurement at 600 nm (Bioscreen C, Labsystem, Helsinki, Finland). For antibacterial activity microplates were incubated at 25°C with 20 s shaking before hourly absorbance measurement for 48 h. For antifungal activity microplates were incubated at 22°C with 1 min shaking before absorbance measurement that were done every two hours during seven days. The experiment was repeated twice. The MIC was taken as the lowest compound concentration with no growth at the end of the experiment.

[2] = test system: Pseudomonas syringae pv. actinidiae Psa3700.1.1; assay: MIC, growth inhibition in microtiter plates (TSB); details: Psa, 25°C, 48 h, OD 600 nm, lowest concentration with no growth, given as interval of tested concentrations, three replicates, experiment repeated twice
Description: as §1, §2, §3

[3] = test system: Pseudomonas syringae pv. syringae EPS94; assay: MIC, growth inhibition in microtiter plates (TSB); details: Pss, 25°C, 48 h, OD 600 nm, lowest concentration with no growth, given as interval of tested concentrations, three replicates, experiment repeated twice
Description: as §1, §2, §3

[4] = test system: Xanthomonas arboricola pv. pruni CFBP5563; assay: MIC, growth inhibition in microtiter plates (TSB); details: Xap, 25°C, 48 h, OD 600 nm, lowest concentration with no growth, given as interval of tested concentrations, three replicates, experiment repeated twice
Description: as §1, §2, §3

[5] = test system: Xanthomonas axonopodis pv. vesicatoria 2133–2; assay: MIC, growth inhibition in microtiter plates (TSB); details: Xav, 25°C, 48 h, OD 600 nm, lowest concentration with no growth, given as interval of tested concentrations, three replicates, experiment repeated twice
Description: as §1, §2, §3

[6] = test system: Xanthomonas fragariae Xf349-9A; assay: MIC, growth inhibition in microtiter plates (TSB); details: Xf, 25°C, 48 h, OD 600 nm, lowest concentration with no growth, given as interval of tested concentrations, three replicates, experiment repeated twice
Description: as §1, §2, §3

[7] = test system: Fusarium oxysporum f. sp. lycopersici FOL 3 race 2; assay: MIC, antifungal growth inhibition in microtiter plates (PDB); details: Fo, 22°C, seven days, OD 600 nm, lowest concentration with no growth, given as interval of tested concentrations, three replicates, experiment repeated twice
Method: (§4) The following plant pathogenic fungal strains were used: Penicillium expansum EPS26 (Institut de Tecnologia Agroalimentària, Universitat de Girona, Spain) and Fusarium oxysporum f. sp. lycopersici FOL 3 race 2 (ATCC 201829, American Type Culture Collection,Virginia, EEUU). Strains were cultured on potato dextrose agar (PDA) plates (Difco). Conidia from P. expansum and microconidia from F. oxysporum were obtained from 5–7 day-old agar Potato Dextrose (PDA) cultures after growth at 25°C. Inoculum was prepared by scraping spore material from culture surfaces with a cotton swab and resuspending it in distilled water containing 0.5‰ of tween 80. The suspensions were filtered through Miracloth (Merk, Millipore) and the concentration of conidia was determined using a hemacytometer and adjusted to 10^4 conidia mL^-1 for F. oxysporum and to 10^3 conidia mL^-1 for P. expansum.
as §2, §3

[8] = test system: Penicillium expansum EPS26; assay: as above; details: Pe, 22°C, seven days, OD 600 nm, lowest concentration with no growth, given as interval of tested concentrations, three replicates, experiment repeated twice
Method: as §4, §2, §3

SMILES | MIC [1] [µM] | MIC [2] [µM] | MIC [3] [µM] | MIC [4] [µM] | MIC [5] [µM] | MIC [6] [µM] | MIC [7] [µM] | MIC [8] [µM]
CCCC(=O)NCCCC[C@H](NC(=O)[C@H](CC(C)C)NC(=O)[C@H](CCCCN)NC(=O)[C@H](CCCCN)NC(C)=O)C(=O)N[C@@H](CCCCN)C(=O)N[C@@H](CCCCN)C(=O)N[C@H](C(=O)N[C@@H](CC(C)C)C(=O)N[C@@H](CCCCN)C(=O)N[C@@H](Cc1ccc(O)cc1)C(=O)N[C@@H](CC(C)C)C(N)=O)[C@@H](C)CC [BP383, Ac-KKLK(COC3H7)KKILKYL-NH2] | 6.2 to 12.5 | 6.2 to 12.5 | 6.2 to 12.5 | 6.2 to 12.5 | 3.1 to 6.2 | 3.1 to 6.2 | 0.8 to 1.6 | 6.2 to 12.5
CCCCCC(=O)NCCCC[C@H](NC(=O)[C@H](Cc1ccccc1)NC(=O)[C@H](CC(C)C)NC(=O)[C@H](CCCCN)NC(=O)[C@H](CCCCN)NC(C)=O)C(=O)N[C@@H](CCCCN)C(=O)N[C@H](C(=O)N[C@@H](CC(C)C)C(=O)N[C@@H](CCCCN)C(=O)N[C@@H](Cc1ccc(O)cc1)C(=O)N[C@@H](CC(C)C)C(N)=O)[C@@H](C)CC [BP372, Ac-KKLFK(COC5H11)KILKYL-NH2] | 6.2 to 12.5 | 6.2 to 12.5 | 6.2 to 12.5 | 3.1 to 6.2 | 6.2 to 12.5 | 3.1 to 6.2 | 0.8 to 1.6 | 6.2 to 12.5
CCCCCCCCCCCC(=O)NCCCC[C@H](NC(=O)[C@H](Cc1ccc(O)cc1)NC(=O)[C@H](CCCCN)NC(=O)[C@H](CC(C)C)NC(=O)[C@@H](NC(=O)[C@H](CCCCN)NC(=O)[C@H](CCCCN)NC(=O)[C@H](Cc1ccccc1)NC(=O)[C@H](CC(C)C)NC(=O)[C@H](CCCCN)NC(=O)[C@H](CCCCN)NC(C)=O)[C@@H](C)CC)C(N)=O [BP402, Ac-KKLFKKILKYK(COC11H23)-NH2] | 3.1 to 6.2 | 3.1 to 6.2 | 3.1 to 6.2 | 1.6 to 3.1 | 1.6 to 3.1 | 3.1 to 6.2 | 6.2 to 12.5 | 12.5 to 25
CCCCCC(=O)NCCCC[C@H](NC(=O)[C@H](CCCCN)NC(=O)[C@H](Cc1ccccc1)NC(=O)[C@H](CC(C)C)NC(=O)[C@H](CCCCN)NC(=O)[C@H](CCCCN)NC(C)=O)C(=O)N[C@H](C(=O)N[C@@H](CC(C)C)C(=O)N[C@@H](CCCCN)C(=O)N[C@@H](Cc1ccc(O)cc1)C(=O)N[C@@H](CC(C)C)C(N)=O)[C@@H](C)CC [BP373, Ac-KKLFKK(COC5H11)ILKYL-NH2] | 3.1 to 6.2 | 3.1 to 6.2 | 6.2 to 12.5 | 3.1 to 6.2 | 6.2 to 12.5 | 3.1 to 6.2 | 0.4 to 0.8 | 3.1 to 6.2
CCCCCCCCCCCC(=O)NCCCC[C@H](NC(=O)[C@H](CCCCN)NC(=O)[C@H](CC(C)C)NC(=O)[C@@H](NC(=O)[C@H](CCCCN)NC(=O)[C@H](CCCCN)NC(=O)[C@H](Cc1ccccc1)NC(=O)[C@H](CC(C)C)NC(=O)[C@H](CCCCN)NC(=O)[C@H](CCCCN)NC(C)=O)[C@@H](C)CC)C(=O)N[C@@H](CC(C)C)C(N)=O [BP401, Ac-KKLFKKILKK(COC11H23)L-NH2] | >25 | 6.2 to 12.5 | 6.2 to 12.5 | 1.6 to 3.1 | 0.8 to 1.6 | 3.1 to 6.2 | 6.2 to 12.5 | 12.5 to 25
CCCCCC(=O)NCCCC[C@H](NC(=O)[C@H](CCCCN)NC(C)=O)C(=O)N[C@@H](CC(C)C)C(=O)N[C@@H](Cc1ccccc1)C(=O)N[C@@H](CCCCN)C(=O)N[C@@H](CCCCN)C(=O)N[C@H](C(=O)N[C@@H](CC(C)C)C(=O)N[C@@H](CCCCN)C(=O)N[C@@H](Cc1ccc(O)cc1)C(=O)N[C@@H](CC(C)C)C(N)=O)[C@@H](C)CC [BP369, Ac-KK(COC5H11)LFKKILKYL-NH2] | 6.2 to 12.5 | 3.1 to 6.2 | 6.2 to 12.5 | 0.8 to 1.6 | 3.1 to 6.2 | 3.1 to 6.2 | 0.4 to 0.8 | 1.6 to 3.1
CCCCCC(=O)NCCCC[C@H](NC(=O)[C@H](CC(C)C)NC(=O)[C@@H](NC(=O)[C@H](CCCCN)NC(=O)[C@H](CCCCN)NC(=O)[C@H](Cc1ccccc1)NC(=O)[C@H](CC(C)C)NC(=O)[C@H](CCCCN)NC(=O)[C@H](CCCCN)NC(C)=O)[C@@H](C)CC)C(=O)N[C@@H](Cc1ccc(O)cc1)C(=O)N[C@@H](CC(C)C)C(N)=O [BP376, Ac-KKLFKKILK(COC5H11)YL-NH2] | 6.2 to 12.5 | 3.1 to 6.2 | 12.5 to 25 | 6.2 to 12.5 | 6.2 to 12.5 | 3.1 to 6.2 | 0.4 to 0.8 | 3.1 to 6.2
CCCC(=O)N[C@@H](CCCCN)C(=O)N[C@@H](CCCCN)C(=O)N[C@@H](CC(C)C)C(=O)N[C@@H](Cc1ccccc1)C(=O)N[C@@H](CCCCN)C(=O)N[C@@H](CCCCN)C(=O)N[C@H](C(=O)N[C@@H](CC(C)C)C(=O)N[C@@H](CCCCN)C(=O)N[C@@H](Cc1ccc(O)cc1)C(=O)N[C@@H](CC(C)C)C(N)=O)[C@@H](C)CC [BP379, C3H7CO-KKLFKKILKYL-NH2] | 3.1 to 6.2 | 3.1 to 6.2 | 3.1 to 6.2 | 3.1 to 6.2 | 3.1 to 6.2 | 3.1 to 6.2 | 3.1 to 6.2 | 6.2 to 12.5
CCCC(=O)NCCCC[C@H](NC(=O)[C@H](CC(C)C)NC(=O)[C@@H](NC(=O)[C@H](CCCCN)NC(=O)[C@H](CCCCN)NC(=O)[C@H](Cc1ccccc1)NC(=O)[C@H](CC(C)C)NC(=O)[C@H](CCCCN)NC(=O)[C@H](CCCCN)NC(C)=O)[C@@H](C)CC)C(=O)N[C@@H](Cc1ccc(O)cc1)C(=O)N[C@@H](CC(C)C)C(N)=O [BP388, Ac-KKLFKKILK(COC3H7)YL-NH2] | 3.1 to 6.2 | 6.2 to 12.5 | 6.2 to 12.5 | 3.1 to 6.2 | 1.6 to 3.1 | 1.6 to 3.1 | 0.8 to 1.6 | 6.2 to 12.5
CCCCCCCCCCCC(=O)NCCCC[C@H](NC(=O)[C@H](CCCCN)NC(=O)[C@H](CCCCN)NC(C)=O)C(=O)N[C@@H](Cc1ccccc1)C(=O)N[C@@H](CCCCN)C(=O)N[C@@H](CCCCN)C(=O)N[C@H](C(=O)N[C@@H](CC(C)C)C(=O)N[C@@H](CCCCN)C(=O)N[C@@H](Cc1ccc(O)cc1)C(=O)N[C@@H](CC(C)C)C(N)=O)[C@@H](C)CC [BP394, Ac-KKK(COC11H23)FKKILKYL-NH2] | 12.5 to 25 | 6.2 to 12.5 | 6.2 to 12.5 | 1.6 to 3.1 | 1.6 to 3.1 | 0.8 to 1.6 | 6.2 to 12.5 | 12.5 to 25
